Laboratory results reported in the supplement of paper PMC12137928.
Counter-ions that a name gives are not always drawn.

Test system: HCT116
Details: 72 h
Summary of the method: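 Four-parameter Hill fits gave IC50 and maximal efficacy. The data were CellTiter-Glo luminescence readings in HCT116 cells, normalized so that vehicle was 0% and positive control was -100%, with pattern correction afterwards.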

Structure (SMILES) | IC50 cell viability (ICRF193 0 nM) [µM] | IC50 cell viability (ICRF193 200 nM) [µM]
Cc1ncc(C[n+]2csc(CCOP(=O)(O)OP(=O)(O)O)c2C)c(N)n1 [Thiamine pyrophosphate] | > 45.8 | > 45.8
S=P(N1CC1)(N1CC1)N1CC1 [ThioTEPA] | > 45.8 | > 45.8
N#CSCC(=O)O [Thiocyanoacetic acid sodium salt] | > 45.8 | > 45.8
COc1ccc(CN(CCN(C)C)c2ncccn2)cc1 [Thonzylamine hydrochloride] | > 45.8 | > 45.8
Cc1cc(OI)c(C(C)C)cc1-c1cc(C(C)C)c(OI)cc1C [Thymol iodide] | > 45.8 | > 45.8
Cc1ccc(C(C)C)c(O)c1 [Thymol] | > 45.8 | > 45.8
Cc1ccsc1C(=CCCN1CCC[C@@H](C(=O)O)C1)c1sccc1C [Tiagabine hydrochloride] | > 45.8 | > 45.8
C=C[C@]1(C)C[C@@H](OC(=O)CSCCN(CC)CC)[C@]2(C)[C@H](C)CC[C@]3(CCC(=O)[C@H]32)[C@@H](C)[C@@H]1O [Tiamulin] | > 45.8 | > 45.8
CCN(CC)CCNC(=O)c1cc(S(C)(=O)=O)ccc1OC [Tiapride hydrochloride] | > 45.8 | > 45.8
O=C(Cn1c(=O)sc2ccc(Cl)cc21)N1CCN(CCO)CC1 [Tiaramide hydrochloride] | > 45.8 | > 45.8
C#C[C@]1(O)CC[C@H]2[C@@H]3[C@H](C)CC4=C(CCC(=O)C4)[C@H]3CC[C@@]21C [Tibolone] | > 45.8 | > 45.8
CN(C)c1cc(NC(=O)CNC(C)(C)C)c(O)c2c1C[C@H]1C[C@H]3[C@H](N(C)C)C(O)=C(C(N)=O)C(=O)[C@@]3(O)C(O)=C1C2=O [Tigecycline] | > 45.8 | > 45.8
CC[C@H]1OC(=O)C[C@@H](O)[C@H](C)[C@@H](O[C@@H]2O[C@H](C)[C@@H](O)[C@H](N(C)C)[C@H]2O)[C@@H](CCN2CCCCC2)C[C@@H](C)C(=O)/C=C/C(C)=C/[C@@H]1CN1CCCCC1 [Tildipirosin] | > 45.8 | > 45.8
CCNC1(c2cccs2)CCCCC1=O (stereo unspecified) [Tiletamine Hydrochloride] | > 45.8 | > 45.8
Cc1nc(C2CCCCC2)c(-c2ccc(S(N)(=O)=O)c(F)c2)o1 [Tilmacoxib] | > 45.8 | > 45.8
COC1CC(=C(c2cccs2)c2cccs2)C[N+](C)(C)C1 (stereo unspecified) [Timepidium bromide] | > 45.8 | > 45.8
CCS(=O)(=O)CCn1c([N+](=O)[O-])cnc1C [Tinidazole] | > 45.8 | > 45.8
CC(S)C(=O)NCC(=O)O (stereo unspecified) [Tiopronin] | > 45.8 | > 45.8
C[N+]1(C)[C@@H]2C[C@@H](OC(=O)C(O)(c3cccs3)c3cccs3)C[C@H]1[C@@H]1O[C@@H]12 [Tiotropium (Bromide)] | > 45.8 | > 45.8
CCCOc1ccc2nc(NC(=O)OC)sc2c1 [Tioxidazole] | > 45.8 | > 45.8
N=C1CCCN1Cc1[nH]c(=O)[nH]c(=O)c1Cl [Tipiracil] | > 45.8 | > 45.8

Structure (SMILES) | IC50 cell viability (ICRF193 0 nM) [µM] | IC50 cell viability (ICRF193 200 nM) [µM]
C[N+]12CCCCC1CCC(=C(c1cccs1)c1cccs1)C2 (stereo unspecified) [Tiquizium bromide] | > 45.8 | > 45.8
Clc1ccc2nsnc2c1NC1=NCCN1 [Tizanidine hydrochloride] | > 45.8 | > 45.8
COc1ccc(CNCC(O)COc2ccc3[nH]c(=O)ccc3c2)cc1OC (stereo unspecified) [Toborinone] | > 45.8 | > 45.8
NC[C@H]1O[C@H](O[C@H]2[C@H](O)[C@@H](O[C@H]3O[C@H](CO)[C@@H](O)[C@H](N)[C@H]3O)[C@H](N)C[C@@H]2N)[C@H](N)C[C@@H]1O [Tobramycin] | > 45.8 | > 45.8
CC1=C(/C=C/C(C)=C/C=C/C(C)=C/C(=O)Oc2c(C)c(C)c3c(c2C)CCC(C)(CCCC(C)CCCC(C)CCCC(C)C)O3)C(C)(C)CCC1 (stereo unspecified) [Tocoretinate] | > 45.8 | > 45.8
C[C@@H]1CCN(C(=O)CC#N)C[C@@H]1N(C)c1ncnc2[nH]ccc12 [Tofacitinib] | > 45.8 | > 45.8
CCC1C(C)=NN=C(c2ccc(OC)c(OC)c2)c2cc(OC)c(OC)cc21 (stereo unspecified) [Tofisopam] | > 45.8 | > 45.8
CCc1ccc(Cc2ccc3c(c2)[C@]2(OC3)O[C@H](CO)[C@@H](O)[C@H](O)[C@H]2O)cc1 [Tofogliflozin (hydrate)] | > 45.8 | > 45.8
Cc1ccc(S(=O)(=O)NC(=O)NN2CCCCCC2)cc1 [Tolazamide] | > 45.8 | > 45.8
CCCCNC(=O)NS(=O)(=O)c1ccc(C)cc1 [Tolbutamide] | > 45.8 | > 45.8
Cc1cccc(N(C)C(=S)Oc2ccc3c(c2)C2CCC3C2)c1 (stereo unspecified) [Tolciclate] | > 45.8 | > 45.8
CCN(CC)CC(=O)Nc1c(C)cccc1C(=O)OC [Tolycaine] | > 45.8 | > 45.8
CC1(C)O[C@@H]2[C@@H](CO[C@@]3(COS(N)(=O)=O)OC(C)(C)O[C@@H]23)O1 [Topiramate] | > 45.8 | > 45.8
N#Cc1cc(-c2n[nH]c(-c3ccncc3)n2)ccn1 [Topiroxostat] | > 45.8 | > 45.8
NC1CCN(c2nc3c(cc2F)c(=O)c(C(=O)O)cn3-c2ccc(F)cc2F)C1 (stereo unspecified) [Tosufloxacin toluenesulfonic acid] | > 45.8 | > 45.8
CC1(C)[C@H](C=C(Cl)Cl)[C@H]1C(=O)OCc1c(F)c(F)cc(F)c1F [Transfluthrin] | > 45.8 | > 45.8
N[C@@H]1C[C@H]1c1ccccc1 [Tranylcypromine hydrochloride] | > 45.8 | > 45.8
Cn1c(=O)cc(N2CCC[C@@H](N)C2)n(Cc2cc(F)ccc2C#N)c1=O [Trelagliptin succinate] | > 45.8 | > 45.8
CC(=O)O[C@H]1CC[C@H]2[C@@H]3CCC4=CC(=O)CCC4=C3C=C[C@]12C [Trenbolone (acetate)] | > 45.8 | > 45.8
CS(=O)(=O)OC[C@H](O)[C@@H](O)COS(C)(=O)=O [Treosulfan] | > 45.8 | > 45.8

Second part, the compound after the results:

IC50 cell viability (ICRF193 0 nM) [µM] | IC50 cell viability (ICRF193 200 nM) [µM] | Structure (SMILES)
> 45.8 | > 45.8 | CS(=O)(=O)c1ccc([C@H](O)[C@@H](COC(=O)CN)NC(=O)C(Cl)Cl)cc1 [Thiamphenicol glycinate]
> 45.8 | > 45.8 | CS(=O)(=O)c1ccc([C@@H](O)[C@@H](CO)NC(=O)C(Cl)Cl)cc1 [Thiamphenicol]
> 45.8 | > 45.8 | CC(C(=O)O)c1ccc(C(=O)c2ccccc2)s1 (stereo unspecified) [Tiaprofenic acid]
> 45.8 | > 45.8 | CC1(C)S[C@@H]2[C@H](NC(=O)[C@H](C(=O)O)c3ccsc3)C(=O)N2[C@H]1C(=O)O [Ticarcillin sodium]
> 45.8 | > 45.8 | Clc1ccccc1CN1CCc2sccc2C1 [Ticlopidine hydrochloride]
> 45.8 | > 45.8 | O=P(O)(O)C(Sc1ccc(Cl)cc1)P(=O)(O)O [Tiludronate disodium salt hydrate]
> 45.8 | > 45.8 | CCOC(=O)c1c(N)sc2c1CCN(Cc1ccccc1)C2 [Tinoridine]
> 45.8 | > 45.8 | CCC[C@@]1(CCc2ccccc2)CC(O)=C([C@H](CC)c2cccc(NS(=O)(=O)c3ccc(C(F)(F)F)cn3)c2)C(=O)O1 [Tipranavir]
> 45.8 | > 45.8 | CCCCS(=O)(=O)N[C@@H](Cc1ccc(OCCCCC2CCNCC2)cc1)C(=O)O [Tirofiban hydrochloride monohydrate]
> 45.8 | > 45.8 | Cc1cccc(C)c1NC(=O)C(C)N (stereo unspecified) [Tocainide hydrochloride]
> 45.8 | > 45.8 | Cc1ccc(C(C)OC(=O)C2(C)CCC(C(=O)O)C2(C)C)cc1 (stereo unspecified) [Tocanfil]
> 45.8 | > 45.8 | CCOC(=O)NNc1nncc2ccccc12 [Todralazine hydrochloride]
> 45.8 | > 45.8 | c1ccc(CC2=NCCN2)cc1 [Tolazoline hydrochloride]
> 45.8 | > 45.8 | Cc1cccc(N(C)C(=S)Oc2ccc3c(c2)CCC3)c1 [Tolindate]
> 45.8 | > 45.8 | Cc1ccc(C(=O)c2ccc(CC(=O)O)n2C)cc1 [Tolmetin sodium dihydrate]
> 45.8 | > 45.8 | Cc1cccc(N(C)C(=S)Oc2ccc3ccccc3c2)c1 [Tolnaftate]
> 45.8 | > 45.8 | Cc1ccc(C(=O)C(C)CN2CCCCC2)cc1 (stereo unspecified) [Tolperisone hydrochloride]
> 45.8 | > 45.8 | Cc1ccc(O)c([C@H](CCN(C(C)C)C(C)C)c2ccccc2)c1 [Tolterodine]
> 45.8 | > 45.8 | Cc1ccccc1C(=O)Nc1ccc(C(=O)N2CCCC(O)c3cc(Cl)ccc32)c(C)c1 (stereo unspecified) [Tolvaptan]
> 45.8 | > 45.8 | Cc1cccc(Nc2ccncc2S(=O)(=O)NC(=O)NC(C)C)c1 [Torsemide]
> 45.8 | > 45.8 | COc1ccc(/C=C/C(=O)Nc2ccccc2C(=O)O)cc1OC [Tranilast]
> 45.8 | > 45.8 | O=c1n(CCCN2CCN(c3cccc(Cl)c3)CC2)nc2ccccn12 [Trazodone hydrochloride]
